Experiments:
[1] = Stability in an aqueous solution (HPLC residual ratio); conditions: for Peak area (mAU × sec) after 24 hours / The residual ratios (%): Britton-Robinson's buffer pH 7, 25° C., 24 hours; for Peak area (mAU × sec) initial: Britton-Robinson's buffer pH 7, before incubation
Experimental: The compounds of the formula (I) were dissolved in DMSO in concentrations of 10 to 20 mM, and these were diluted about 500 folds with Britton-Robinson's buffer solution of pH 7. Each of the solutions as sample solutions was incubated at 25° C. for 24 hours.
The sample solutions were analyzed by high performance liquid chromatography before and after incubation, and the residual ratios of the tested substances in the sample solutions after incubation were determined from the peak areas of the obtained chromatograms.

[2] = system: P388 mouse leukemia cell; conditions: P388, RPM-1640 medium; cited from earlier work
[3] = system: L-1210 mouse leukemia cell; conditions: L-1210, RPM-1640 medium; cited from earlier work
[4] = system: HL-60 human leukemia cell; conditions: HL-60, RPM-1640 medium; cited from earlier work
[5] = system: P388 mouse leukemia cell; conditions: cited from earlier work
[6] = Physico-chemical properties: solubility; type: physicochemical
Experimental: The physico-chemical properties of 11107D are shown below. The structure of 11107D was determined as shown below.

[7] = system: WiDr human colon cancer cells; assay: Solid tumor growth inhibitory activities, WiDr human colon tumor model in nude mice; type: in vivo; conditions: Mus musculus, 360 h, Dose 5.0 mg/kg, intravenous injection 5 consecutive days, tumor volume Day 15, read-out: Growth inhibitory activities in the WiDr human solid tumor model (T/C %)
Source text: (§1) In order to study solid tumor growth inhibitory activities of the compounds of the formula (I) in vivo, WiDr human colon cancer cells were implanted subcutaneously into the flanks of nude mice. […]. The animals were grouped so that the average of the volumes of the respective groups became uniform, when it reached about 100 mm^3. Control group was made up of 10 mice and 11107D-administering groups were made up of 5 mice. The derivatives were administered for the administering groups for 5 consecutive days by intravenous injection so as to be any of 0.625 mg, 1.25 mg, 2.5 mg, 5 mg and 10 mg/kg/day, and a vehicle was administered to the control group. The tumor volumes on Day 15 were measured, and relative tumor volume ratios (T/C %) were determined setting the tumor volume of the control group as 100%. The body weights on Day 1, Day 5, Day 8, Day 12 and Day 15 (or 16) were measured, and relative body weight variations were determined setting the body weight on Day 1 as 100%. The relative body weight ratios on the day where the body weight reached the minimum were defined as the minimum relative weight ratios and are shown in Table 3.

[8] = system: VEGF promoter; assay: VEGF transcription-suppressing activity (VEGF promoter-PLAP reporter, U251/1-8 cells, hypoxia); type: cell-based; conditions: Homo sapiens, U-251; U251/1-8 cells, hypoxic incubator 18 hours, PLAP activity; read-out: VEGF transcription-suppressing activities (IC50: nM)
Source text: In order to prepare reporter system reflecting transcription from VEGF promoter, VEGF promoter sequence was cloned, and inserted in secretory alkaline phosphatase (PLAP) vector to construct reporter vector.
In order to obtain the promoter region of human VEGF, VEGF genomic DNA was cloned from phage library. PCR primers having the sequences described in Sequence Numbers 1 and 2 were designed based on VEGF cDNA (GenBank accession number: X62568) and a fragment having about 340 bp was obtained by carrying out PCR. Human genomic phage library (Human genomic library, Clontech Co.) was screened using this as a probe to obtain VEGF genomic DNA. The DNA was digested by EcoRI, and the resultant fragments were inserted in the EcoRI site of pUC18. Finally, pUC18-VEGFA containing about 5.4 kb of VEGF 5′ flanking region was obtained. The pUC18-VEGFA was digested by KpnI/NheI, VEGF promoter region of about 2.3 kb obtained was inserted in the multi cloning site KpnI/NheI of secretory alkaline phosphatase (PLAP) vector (Goto et al, Mol. Pharmacol., 49, 860-873, 1996), and thus, VEGF-PLAP vector was constructed.
The above-mentioned VEGF-PLAP vector was transfected in the U251 cell cultured in the DULBECCO-modified eagle medium (DMEM; manufactured by SIGMA Co., Ltd.) containing 10% fetal calf serum, and the cells were cultured in the presence of 1 mg/mL G418 (Merck Co.) to establish G418 resistant stable clone (U251/1-8 cell).
It was confirmed that U251/1-8 cell secreted PLAP under hypoxic condition (2% O2 incubator) in the same manner as in the report (Cell. Mol. Biol. Res. 40, 35-39, 1994) and was a reporter system reflecting the transcription from VEGF promoter. The screening of the compound suppressing VEGF production which was induced by hypoxic stimulation was carried out below using the clone.
In order to remove the influence of alkaline phosphates in serum, U251/1-8 cells were rinsed twice with the adequate amount of PBS (Phosphate buffered saline), diluted in the DMEM medium containing 10% of serum in which alkaline phosphates was inactivated by the treatment of 65° C. for 20 min., and dispensed in 96-well plates by 4×10^4 cells/180 μL.
After culturing at 37° C. overnight in a CO2 incubator (5% CO2), 20 μL of the above-mentioned incubation solution containing the test compound diluted with 3-fold succession was added, and then they were incubated in a hypoxic (2% […]) incubator for 18 hours. With respect to the PLAP activity in the culture supernatants, 10 μL of the supernatants was added to 50 μL of 0.28 M Na2CO3—NaHCO3 buffer solution (pH 10.0, 8.0 mM MgSO4), and finally 50 μL of alkaline phosphatase substrate (LUMISTEIN, Genomescience Co.) was added. After reacting for one hour, the alkaline phosphatase activity of the PLAP was measured by detecting the chemical luminescence by a micro plate reader (Perkin-Elmer Co.). The PLAP activity under normoxia was set as 0%, the PLAP activity of cell which was treated under hypoxia was set as 100%, and the concentration suppressing the PLAP activity by 50% was set as the IC50 value of PLAP. The IC50 values of 11107D derivatives shown in Examples were measured, and the IC50 values of representative 11107D derivatives are shown in Table 1.

[9] = system: WiDr human colon cancer cells; assay: Growth inhibitory activities on WiDr human colon cancer cells (MTT); type: cell-based; conditions: 72 h, three days incubation
Experimental: WiDr human colon cancer cells cultured in DULBECCO-modified eagle medium (DMEM; manufactured by SIGMA Co., Ltd.) containing 10% fetal calf serum, penicillin (100 unit/mL) and streptomycin (100 μg/mL) were dispensed in 96-well plates by 2×10^3 cells/well. After culturing overnight in a CO2 incubator, 20 μL of the above-mentioned incubation solution containing the test compound diluted with 3-fold succession was added, followed by incubation. After three days, 50 μL of 3.3 mg/mL MTT solution was added, followed by culturing for further one hour. Then, formazan formed by the reduction by the action of living cells was extracted with 100 μL of DMSO, the absorbance (A540/A660) was determined and was set as the index of the number of living cells.
The concentrations of the compounds of the formula (I) at which the growth of WiDr human colon cancer cells are inhibited 50% were determined.

[10] = Body weight loss (acute toxicity) in the WiDr tumor model; type: in vivo, nude mice; conditions: Dose 5.0 mg/kg, intravenous 5 consecutive days; body weight relative to Day 1
Source text: as §1

CCC(OC)C(C)C1OC1C(O)C(C)/C=C/C=C(\C)C1OC(=O)CC(O)CCC(C)(O)C(OC(C)=O)/C=C/C1C (stereo not drawn) [FD895, reference compound]
Peak area (mAU × sec) after 24 hours [1]: 993 mAU × sec
The residual ratios (%) [1]: 83%
Peak area (mAU × sec) initial [1]: 1197 mAU × sec
Stability in an aqueous solution [1]: unstable in an aqueous solution
in vitro cell growth inhibitory activities [2]: has in vitro cell growth inhibitory activities
in vitro cell growth inhibitory activities [3]: has in vitro cell growth inhibitory activities
in vitro cell growth inhibitory activities [4]: has in vitro cell growth inhibitory activities
antitumor activities in an in vivo experiment [5]: did not show antitumor activities

CCC(O)C(C)C1OC1CC(C)(O)/C=C/C=C(\C)C1OC(=O)CC(O)CCC(C)(O)C(OC(C)=O)/C=C/C1C (stereo not drawn) [Compound 11107D, (8E,12E,14E)-7-acetoxy-3,6,16,21-tetrahydroxy-6,10,12,16,20-pentamethyl-18,19-epoxytricosa-8,12,14-trien-11-olide]
Peak area (mAU × sec) after 24 hours [1]: 3817 mAU × sec
The residual ratios (%) [1]: 95.6%
Peak area (mAU × sec) initial [1]: 3994 mAU × sec
Stability in an aqueous solution [1]: stable even in an aqueous solution
Solubility in organic solvents ([6]; dimethyl sulfoxide, pyridine, methanol and acetone): soluble
Solubility in water ([6]; water): slightly soluble

CCC(O)C(C)C1OC1CC(C)(O)/C=C/C=C(\C)C1OC(=O)CC(O)CCC(C)(O)C(OC(=O)N2CCN(C3CCCCCC3)CC2)/C=C/C1C (stereo not drawn) [Compound 45, (8E,12E,14E)-7-((4-Cycloheptylpiperazin-1-yl)carbonyl)oxy-3,6,16,21-tetrahydroxy-6,10,12,16,20-pentamethyl-18,19-epoxytricosa-8,12,14-trien-11-olide]
Peak area (mAU × sec) after 24 hours [1]: 5024 mAU × sec
The residual ratios (%) [1]: 95.0%
Peak area (mAU × sec) initial [1]: 5291 mAU × sec
response vs control in vivo at 5 mg/kg [7]: 20%
IC50 [8]: 1.9 nM
IC50 [9]: 0.7 nM
the minimum relative weight ratios [10]: 0.90

Reference: patent US7893068B2, “Physiologically active substances” (Mercian Corporation, priority 2002, dated 2011)
